Experimental data: US11849728B2, “Method for controlling soybean rust fungus having resistance against Qo site inhibitor” (SUMITOMO CHEMICAL COMPANY, LIMITED, priority 2018, dated 2023)

System: soybean rust fungus (Phakopsora pachyrhizi) having an amino acid substitution of F129L on mitochondrial cytochrome b protein
Assay: Leaf disk test for control of soybean rust (Test Example 1 / Comparative Test Example 1)
Format: in vivo
Conditions: method of Test Example 1
Protocol: Soybean leaf (cv; Kurosengoku) was punched out to 1 cm diameter to prepare a leaf disk. Each 1 mL of an agar medium (agar concentration 1.2%) was dispensed in 24 well microplate. A piece of the leaf disk was placed on each well. To a mixture of 0.5 μL of Sorpol (registered trademark) 1200KX, 4.5 μL of DMSO, and 5 μL of xylene was added 20 μL of a solution containing 10000 ppm of the test compound in DMSO. The resulting mixture was diluted with ion exchange water to prepare a spray solution containing a predetermined concentration of the test compound. The spray solution was sprayed in 10 μL per one leaf disk. After 1 day, an aqueous suspension of spores of soybean rust fungus (Phakopsora pachyrhizi) having an amino acid substitution of F129L on mitochondrial cytochrome b protein (1.0×10^5/mL) was inoculated onto the leaf disks. After the inoculation, the microplate was placed in a growth chamber (light on for 6 hours, light off for 18 hours, 23° C. temperature, 60% humidity). After 1 day, the leaf disks were air-dried to disappear water droplets on the surface of the leaf disk, and the microplate was placed again in the growth chamber for 12 days. Thereafter, a lesion area of soybean rust disease was assessed. […] Here the untreated means that the spray solution containing the test compound was not sprayed onto the leaf disk.
The test was conducted by using as a test compound the compound 3 or 8 of the present invention, the present compound 6, 12, 13, 22, 38, 40, 48, 51, 64 or 84, pyraclostrobin, azoxystrobin, picoxystrobin, orysastrobin, dimoxystrobin, metominostrobin, or pyribencarb at 12.5 ppm or 3.1 ppm according to a method described in the Test Example 1. The results are indicated in [Table A], [Table B], and [Table C].

| Compound | Lesion area (%) (12.5 ppm) | Lesion area (%) (3.1 ppm) |
| --- | --- | --- |
| CCCO/N=C(\C)c1ccc(C)c(C/C(=N\OC)C(=O)NC)c1 [Present Compound 51] | 0 |  |
| COC(=O)N(OC)c1ccccc1COc1ccn(-c2ccc(Cl)cc2)n1 [pyraclostrobin, reference compound] | 100 | 100 |
| CO/C=C(\Oc1cc(-c2ccc(F)cc2)ccc1C)C(=O)OC [Present Compound 22] | 0 | 10 |
| CO/C=C(\Oc1cc(/C=C/C2CC2)ccc1C)C(=O)OC [Compound 3 of the present invention] | 0 | 10 |
| COC(=O)NCc1cc(/C(C)=N/OCc2cccc(C)n2)ccc1Cl [pyribencarb, reference compound] | 100 | 100 |
| CO/C=C(\Oc1cc(/C(C)=N/OCc2cccc(C)c2)ccc1C)C(=O)OC [Present Compound 48] | 0 |  |
| CO/C=C(\Oc1cc(-c2cccs2)ccc1C)C(=O)OC [Present Compound 64] | 0 | 10 |
| CNC(=O)/C(=N/OC)c1ccccc1Oc1ccccc1 [metominostrobin, reference compound] | 100 | 100 |
| CNC(=O)/C(=N/OC)c1ccccc1COc1cc(C)ccc1C [dimoxystrobin, reference compound] | 100 | 100 |
| CNC(=O)/C(=N/OC)c1ccccc1CO/N=C(C)/C(=N/OC)C(/C)=N/OC [orysastrobin, reference compound] | 100 | 100 |
| Cc1ccc(-c2ccccc2)cc1Cn1c(C(F)F)nn(C)c1=O [Present Compound 40] | 0 | 0 |
| CNC(=O)/C(Cc1cc(C#CC(C)(C)OC)ccc1C)=N/OC [Present Compound 12] | 0 | 0 |
| CO/C=C(/C(=O)OC)c1ccccc1COc1cccc(C(F)(F)F)n1 [picoxystrobin, reference compound] | 100 | 100 |
| CO/C=C(\Oc1cc(/C(C)=N/OCC2CCC2)ccc1C)C(=O)OC [Present Compound 84] | 0 |  |
| CO/C=C(/C(=O)OC)c1ccccc1Oc1cc(Oc2ccccc2C#N)ncn1 [azoxystrobin, reference compound] | 100 | 100 |
| CO/N=C(\Cc1cc(C#CC(C)(C)C)ccc1C)C(=O)OC [Present Compound 6] | 0 | 0 |
| COc1nn(C)c(=O)n1Cc1cc(C#C[Si](C)(C)C)ccc1C [Present Compound 13] | 0 | 30 |
